We go through 24 molecules from US8377974B2 (Millennium Pharmaceuticals, Inc., priority 2004, dated 2013).

T1 sequence (P00742 235-488 limits assumed): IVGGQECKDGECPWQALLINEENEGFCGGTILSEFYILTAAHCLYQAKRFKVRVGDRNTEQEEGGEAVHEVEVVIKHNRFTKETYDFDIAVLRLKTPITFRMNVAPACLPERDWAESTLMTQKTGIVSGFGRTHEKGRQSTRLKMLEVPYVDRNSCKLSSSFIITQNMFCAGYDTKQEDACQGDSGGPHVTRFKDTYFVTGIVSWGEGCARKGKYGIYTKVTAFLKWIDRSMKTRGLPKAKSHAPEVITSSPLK
T1 sequence (P00742 41-179 partner limits assumed): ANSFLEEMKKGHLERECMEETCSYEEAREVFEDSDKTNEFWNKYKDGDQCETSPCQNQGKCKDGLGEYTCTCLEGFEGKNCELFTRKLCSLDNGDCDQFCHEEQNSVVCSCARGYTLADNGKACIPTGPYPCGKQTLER

The assay addresses T1, human plasma protein factor Xa (Homo sapiens, UniProt P00742).
T1 construct: measure proteolytic activity of the enzyme (factor Xa); purchased Haematologic Technologies (Essex Junction, Vt.); host or cells: human plasma
The assay is described as follows: Factor Xa IC50 determination: cleavage of paranitroanilide substrate S-2765 in 96-well plates. The assay is classed as biochemical. As to conditions: fXa 1 nM, S-2765 100 μM, Tris buffered saline pH 7.4, room temperature. The text has this:
This example illustrates methods for evaluating the compounds of the invention, along with results obtained for such assays. The in vitro and in vivo Factor Xa isoform activities of the inventive compounds can be determined by various procedures known in the art, such as a test for their ability to inhibit the activity of the Factor Xa isoform. […] The IC50 value is the concentration (in nM) of the compound required to provide 50% inhibition of Factor Xa isoform.
An in vitro assay for detecting and measuring inhibition activity against Factor Xa is as follows:
The substrate S-2765 (Z-D-Arg-Gly-Arg-pNA.HCl) was obtained from Diapharma (West Chester, Ohio).
The human plasma protein factor Xa was purchased from Haematologic Technologies (Essex Junction, Vt.).
All assays, which are performed in 96-well microtiter plates, measure proteolytic activity of the enzyme (factor Xa) by following cleavage of paranitroanilide substrate. The assay buffer used for proteolytic assays was Tris buffered saline (20 mM Tris, 150 mM NaCl, 5 mM CaCl2, 0.1% Bovine serum albumin (BSA), 5% Dimethly Sulfoxide (DMSO) pH 7.4). In a 96-well microtiter plate, inhibitor was serially diluted to give a range of concentrations from 0.01 nM to 10 μM (final). Duplicate sets of wells were assayed and control wells without inhibitor were included. Enzyme was added to each well, (fXa concentration=1 nM), the plate was shaken for 5 seconds and then incubated for 5 minutes at room temperature. S2765 was added (100 μM final) and the plate was shaken for 5 seconds (final liquid volume in each well was 200 μl). The degree of substrate hydrolysis was measured at 405 nm on a Thermomax plate reader (Molecular Devices, Sunnyvale, Calif.) for 2 minutes. The initial velocities (mOD/min), for each range of inhibitor concentrations, were fitted to a four parameter equation using Softmax data analysis software. The parameter C, derived from the resulting curve-fit, corresponded to the concentration for half maximal inhibition (IC50).
Consider `CC(NC(=O)c1ccc(Cl)s1)c1cc(-c2ccc(C(=N)N(C)C)cc2)no1` (stereo in doubt) [Example 53, (R)-5-Chloro-thiophene-2-carboxylic acid (1-{3-[4-(N,N-dimethyl-carbamimidoyl)-phenyl]-isoxazol-5-yl}-ethyl)-amide], for which the IC50 is not below 500 nM.

In the case of `O=C(NCC1CC(c2ccc(Br)cc2)=NO1)c1ccc(Cl)s1` (stereo not drawn) [Example 1, 5-Chloro-thiophene-2-carboxylic acid [3-(4-bromo-phenyl)-4,5-dihydro-isoxazol-5-ylmethyl]-amide], the IC50 was not below 500 nM.

`O=C(NCc1cc(-c2cccc(Br)c2)no1)c1ccc(Cl)s1` [Example 4, 5-Chloro-thiophene-2-carboxylic acid [3-(3-bromo-phenyl)-isoxazol-5-ylmethyl]-amide] had an IC50 not below 500 nM.

As for `O=C(NCC1CC(c2ccc(Oc3ccccc3)cc2)=NO1)c1ccc(Cl)s1` (stereo not drawn) [Example 5, 5-Chloro-thiophene-2-carboxylic acid [3-(4-phenoxy-phenyl)-4,5-dihydro-isoxazol-5-ylmethyl]-amide], the IC50 was not below 500 nM.

`N#Cc1ccc(C2=NOC(CNC(=O)c3ccc(Cl)s3)C2)cc1` (stereo not drawn) [Example 7, 5-Chloro-thiophene-2-carboxylic acid [3-(4-cyano-phenyl)-4,5-dihydro-isoxazol-5-ylmethyl]-amide] came in with an IC50 not above 100 nM.

`CN(C)C(=N)c1ccc(C2=NOC(CNC(=O)c3ccc(Cl)s3)C2)cc1` (stereo not drawn) [Example 8, 5-Chloro-thiophene-2-carboxylic acid {3-[4-(N,N-dimethyl-carbamimidoyl)-phenyl]-4,5-dihydro-isoxazol-5-ylmethyl}-amide] came in with an IC50 not above 100 nM.

The molecule `CN1CCN=C1c1ccc(C2=NOC(CNC(=O)c3ccc(Cl)s3)C2)cc1` (stereo not drawn) [Example 9, 5-Chloro-thiophene-2-carboxylic acid {3-[4-(1-methyl-4,5-dihydro-1H-imidazol-2-yl)-phenyl]-4,5-dihydro-isoxazol-5-ylmethyl}-amide] came in with an IC50 not above 100 nM.

The molecule `N=C(c1ccc(C2=NOC(CNC(=O)c3ccc(Cl)s3)C2)cc1)N1CCCC1` (stereo not drawn) [Example 10, 5-Chloro-thiophene-2-carboxylic acid {3-[4-(imino-pyrrolidin-1-yl-methyl)-phenyl]-4,5-dihydro-isoxazol-5-ylmethyl}-amide] came in with a half-inhibitory concentration (IC50) not above 100 nM.

`N=C(c1ccc(C2=NOC(CNC(=O)c3ccc(Cl)s3)C2)cc1)N1CCCCC1` (stereo not drawn) [Example 11, 5-Chloro-thiophene-2-carboxylic acid {3-[4-(imino-piperidin-1-yl-methyl)-phenyl]-4,5-dihydro-isoxazol-5-ylmethyl}-amide] returned an IC50 of 100 to 500 nM.

Turning to `CCOC(=O)C1CCN(C(=N)c2ccc(C3=NOC(CNC(=O)c4ccc(Cl)s4)C3)cc2)CC1` (stereo not drawn) [Example 12, 1-{[4-(5-{[(5-Chloro-thiophene-2-carbonyl)-amino]-methyl}-4,5-dihydro-isoxazol-3-yl)-phenyl]-imino-methyl}-piperidine-4-carboxylic acid ethyl ester], the IC50 was 100 to 500 nM.

Regarding `C#CCN(C)C(=N)c1ccc(C2=NOC(CNC(=O)c3ccc(Cl)s3)C2)cc1` (stereo not drawn) [Example 13, 5-Chloro-thiophene-2-carboxylic acid {3-[4-(N-methyl-N-prop-2-ynyl-carbamimidoyl)-phenyl]-4,5-dihydro-isoxazol-5-ylmethyl}-amide], the IC50 lay in the range of 100 to 500 nM.

On to `COCCN(C)C(=N)c1ccc(C2=NOC(CNC(=O)c3ccc(Cl)s3)C2)cc1` (stereo not drawn) [Example 14, 5-Chloro-thiophene-2-carboxylic acid (3-{4-[N-(2-methoxy-ethyl)-N-methyl-carbamimidoyl]-phenyl}-4,5-dihydro-isoxazol-5-ylmethyl)-amide], for which the half-maximal inhibitory concentration (IC50) lay within 100 to 500 nM.

The molecule `CN(Cc1ccco1)C(=N)c1ccc(C2=NOC(CNC(=O)c3ccc(Cl)s3)C2)cc1` (stereo not drawn) [Example 15, 5-Chloro-thiophene-2-carboxylic acid {3-[4-(N-furan-2-ylmethyl-N-methyl-carbamimidoyl)-phenyl]-4,5-dihydro-isoxazol-5-ylmethyl}-amide] gave an IC50 of 100 to 500 nM.

Consider `CN(C)CCN(C)C(=N)c1ccc(C2=NOC(CNC(=O)c3ccc(Cl)s3)C2)cc1` (stereo not drawn) [Example 16, 5-Chloro-thiophene-2-carboxylic acid (3-{4-[N-(2-dimethylamino-ethyl)-N-methyl-carbamimidoyl]-phenyl}-4,5-dihydro-isoxazol-5-ylmethyl)-amide], for which the IC50 is not above 100 nM.

`CCCN(C)C(=N)c1ccc(C2=NOC(CNC(=O)c3ccc(Cl)s3)C2)cc1` (stereo not drawn) [Example 17, 5-Chloro-thiophene-2-carboxylic acid {3-[4-(N-methyl-N-propyl-carbamimidoyl)-phenyl]-4,5-dihydro-isoxazol-5-ylmethyl}-amide] showed an IC50 not above 100 nM.

`CCN(C)C(=N)c1ccc(C2=NOC(CNC(=O)c3ccc(Cl)s3)C2)cc1` (stereo not drawn) [Example 18, 5-Chloro-thiophene-2-carboxylic acid {3-[4-(N-ethyl-N-methyl-carbamimidoyl)-phenyl]-4,5-dihydro-isoxazol-5-ylmethyl}-amide] showed an IC50 not above 100 nM.

For the molecule `N#Cc1ccc(-c2cc(CNC(=O)c3ccc(Cl)s3)on2)cc1` [Example 20, 5-Chloro-thiophene-2-carboxylic acid [3-(4-cyano-phenyl)-isoxazol-5-ylmethyl]-amide], the IC50 was not above 100 nM.

Regarding `CN(C)C(=N)c1ccc(-c2cc(CNC(=O)c3ccc(Cl)s3)on2)cc1` [Example 21, 5-Chloro-thiophene-2-carboxylic acid {3-[4-(N,N-dimethyl-carbamimidoyl)-phenyl]-isoxazol-5-ylmethyl}-amide], the IC50 is not above 100 nM.

The molecule `CN1CCN=C1c1ccc(-c2cc(CNC(=O)c3ccc(Cl)s3)on2)cc1` [Example 22, 5-Chloro-thiophene-2-carboxylic acid {3-[4-(1-methyl-4,5-dihydro-1H-imidazol-2-yl)-phenyl]-isoxazol-5-ylmethyl}-amide] came in with an IC50 not above 100 nM.

The molecule `N=C(c1ccc(-c2cc(CNC(=O)c3ccc(Cl)s3)on2)cc1)N1CCCC1` [Example 23, 5-Chloro-thiophene-2-carboxylic acid {3-[4-(imino-pyrrolidin-1-yl-methyl)-phenyl]-isoxazol-5-ylmethyl}-amide] yielded an IC50 not above 100 nM.

Turning to `N=C(c1ccc(-c2cc(CNC(=O)c3ccc(Cl)s3)on2)cc1)N1CCCCC1` [Example 24, 5-Chloro-thiophene-2-carboxylic acid {3-[4-(imino-piperidin-1-yl-methyl)-phenyl]-isoxazol-5-ylmethyl}-amide], the IC50 was not above 100 nM.

As to `CCOC(=O)C1CCN(C(=N)c2ccc(-c3cc(CNC(=O)c4ccc(Cl)s4)on3)cc2)CC1` [Example 25, 1-{[4-(5-{[(5-Chloro-thiophene-2-carbonyl)-amino]-methyl}-isoxazol-3-yl)-phenyl]-imino-methyl}-piperidine-4-carboxylic acid ethyl ester], the IC50 is not above 100 nM.

`N=C(c1ccc(-c2cc(CNC(=O)c3ccc(Cl)s3)on2)cc1)N1CCC1` [Example 26, 5-Chloro-thiophene-2-carboxylic acid {3-[4-(azetidin-1-yl-imino-methyl)-phenyl]-isoxazol-5-ylmethyl}-amide] registered an IC50 not above 100 nM.

With `O=C(NCc1cc(-c2ccc(C(N3CCC3)=[N+]3CCC3)cc2)no1)c1ccc(Cl)s1` [Example 27, 5-Chloro-thiophene-2-carboxylic acid {3-[4-(azetidin-1-yl-azetidin-1-ylidene-methyl)-phenyl]-isoxazol-5-ylmethyl}-amide], the IC50 was not above 100 nM.
